# Measurements from patent US5164388A, “Heterocyclic peptide renin inhibitors” (Abbott Laboratories, priority 1991, dated 1992).
# What was measured:
# [1] = target: T1, human renal renin (Homo sapiens, UniProt P00797); assay: Inhibition of human renal renin in vitro (angiotensin I formed, radioimmunoassay); format: biochemical; conditions: human angiotensinogen substrate, 37 degrees C., pH 6.0
# T1 construct: human renal renin, free from acid proteolytic activity; from tissue
# T1 sequence (P00797 67-406): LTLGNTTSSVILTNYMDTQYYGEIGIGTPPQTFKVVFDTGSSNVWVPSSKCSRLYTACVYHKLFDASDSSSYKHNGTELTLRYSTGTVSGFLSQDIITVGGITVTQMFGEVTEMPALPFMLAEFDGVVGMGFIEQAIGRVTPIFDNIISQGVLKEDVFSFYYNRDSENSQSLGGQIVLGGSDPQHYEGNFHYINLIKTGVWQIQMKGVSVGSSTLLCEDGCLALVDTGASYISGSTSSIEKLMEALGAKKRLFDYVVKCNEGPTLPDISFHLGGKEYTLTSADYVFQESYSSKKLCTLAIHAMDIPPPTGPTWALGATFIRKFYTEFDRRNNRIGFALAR
# Experimental: The novel compounds of the present invention are also useful for treating congestive heart failure. […] At the end of the incubation, the amount of angiotensin I formed is measured by radioimmunoassay and the molar concentration required to cause 50% inhibition, expressed as the IC50, is calculated.
# [2] = tested on: Plasma Renin Activity; assay: Plasma renin activity in salt depleted monkeys following oral dosing; format: in vivo, cynomolgous monkeys; conditions: oral 3 mg/kg
# Experimental: (§1) The ability of the compounds of the invention to decrease blood pressure and plasma renin activity in vivo can be determined using the following method.
# (§2) Male cynomolgous monkeys housed under constant temperature and lighting conditions and weighing 3-5 kg were instrumented with chronic indwelling arterial and venous catheters. Following pretreatment by salt-depletion, the monkeys were dosed by nasogastric tube with 3 mg/kg of the compound of Example 152.
# [3] = Blood pressure in salt depleted monkeys following oral dosing; format: in vivo, cynomolgous monkeys; conditions: oral 3 mg/kg
# Experimental: as §1, §2
# [4] = Mean of three monkeys, time 0 min
# [5] = Mean of three monkeys, time 5 min
# [6] = Mean of three monkeys, time 15 min
# [7] = Mean of three monkeys, time 30 min
# [8] = Mean of three monkeys, time 60 min
# [9] = Mean of three monkeys, time 90 min
# [10] = Mean of three monkeys, time 120 min
# [11] = Mean of three monkeys, time 180 min
# [12] = Mean of three monkeys, time 360 min
smiles,measurement,setting,value
"CC1COC(C(O)C(CC2CCCCC2)NC(=O)C(Cc2cscn2)N2CCCC(Cc3ccccc3)(NS(=O)(=O)N3CCN(C)CC3)C2=O)C1 [Example 152, (2S1-((3S)-((N-methylpiperazinsulfonyl)amino-3-phenylmethyl-2-oxo-1-piperidinyl)-3-(4-thiazolyl)propionic acid amide of (2S,4S,1'R,2'S)-2-(2'-amino-3'-cyclohexyl-1'-hydroxypropyl)-4-methyltetrahydrofuran]",IC50,[1],0.55 nM
same,Plasma Renin Activity (PRA),[2]; [4],21.7 ng/mL/h
same,Plasma Renin Activity (PRA),[2]; [5],0.8 ng/mL/h
same,Plasma Renin Activity (PRA),[2]; [6],0.2 ng/mL/h
same,Plasma Renin Activity (PRA),[2]; [7],0.0 ng/mL/h
same,Plasma Renin Activity (PRA),[2]; [8],0.0 ng/mL/h
same,Plasma Renin Activity (PRA),[2]; [9],0.0 ng/mL/h
same,Plasma Renin Activity (PRA),[2]; [10],0.1 ng/mL/h
same,Plasma Renin Activity (PRA),[2]; [11],0.1 ng/mL/h
same,Plasma Renin Activity (PRA),[2]; [12],0.5 ng/mL/h
same,Plasma Renin Activity (PRA),"[2]; Monkey 1, time 0 min",12.6 ng/mL/h
same,Plasma Renin Activity (PRA),"[2]; Monkey 1, time 5 min",2.2 ng/mL/h
same,Plasma Renin Activity (PRA),"[2]; Monkey 1, time 15 min",0.44 ng/mL/h
same,Plasma Renin Activity (PRA),"[2]; Monkey 1, time 30 min",0.0 ng/mL/h
same,Plasma Renin Activity (PRA),"[2]; Monkey 1, time 60 min",0.0 ng/mL/h
same,Plasma Renin Activity (PRA),"[2]; Monkey 1, time 90 min",0.1 ng/mL/h
same,Plasma Renin Activity (PRA),"[2]; Monkey 1, time 120 min",0.0 ng/mL/h
same,Plasma Renin Activity (PRA),"[2]; Monkey 1, time 180 min",0.1 ng/mL/h
same,Plasma Renin Activity (PRA),"[2]; Monkey 1, time 360 min",0.2 ng/mL/h
same,Plasma Renin Activity (PRA),"[2]; Monkey 2, time 0 min",34.2 ng/mL/h
same,Plasma Renin Activity (PRA),"[2]; Monkey 2, time 5 min",0.1 ng/mL/h
same,Plasma Renin Activity (PRA),"[2]; Monkey 2, time 15 min",0.0 ng/mL/h
same,Plasma Renin Activity (PRA),"[2]; Monkey 2, time 30 min",0.0 ng/mL/h
same,Plasma Renin Activity (PRA),"[2]; Monkey 2, time 60 min",0.0 ng/mL/h
same,Plasma Renin Activity (PRA),"[2]; Monkey 2, time 90 min",0.0 ng/mL/h
same,Plasma Renin Activity (PRA),"[2]; Monkey 2, time 120 min",0.3 ng/mL/h
same,Plasma Renin Activity (PRA),"[2]; Monkey 2, time 180 min",0.2 ng/mL/h
same,Plasma Renin Activity (PRA),"[2]; Monkey 2, time 360 min",0.7 ng/mL/h
same,Plasma Renin Activity (PRA),"[2]; Monkey 3, time 0 min",18.4 ng/mL/h
same,Plasma Renin Activity (PRA),"[2]; Monkey 3, time 5 min",0.1 ng/mL/h
same,Plasma Renin Activity (PRA),"[2]; Monkey 3, time 15 min",0.2 ng/mL/h
same,Plasma Renin Activity (PRA),"[2]; Monkey 3, time 30 min",0.0 ng/mL/h
same,Plasma Renin Activity (PRA),"[2]; Monkey 3, time 60 min",0.1 ng/mL/h
same,Plasma Renin Activity (PRA),"[2]; Monkey 3, time 90 min",0.0 ng/mL/h
same,Plasma Renin Activity (PRA),"[2]; Monkey 3, time 120 min",0.0 ng/mL/h
same,Plasma Renin Activity (PRA),"[2]; Monkey 3, time 180 min",0.1 ng/mL/h
same,Plasma Renin Activity (PRA),"[2]; Monkey 3, time 360 min",0.7 ng/mL/h
same,Blood Pressure (BP),[3]; [4],86 mmHg
same,Blood Pressure (BP),[3]; [5],85 mmHg
same,Blood Pressure (BP),[3]; [6],79 mmHg
same,Blood Pressure (BP),[3]; [7],74 mmHg
same,Blood Pressure (BP),[3]; [8],73 mmHg
same,Blood Pressure (BP),[3]; [9],76 mmHg
same,Blood Pressure (BP),[3]; [10],77 mmHg
same,Blood Pressure (BP),[3]; [11],79 mmHg
same,Blood Pressure (BP),[3]; [12],83 mmHg
same,Blood Pressure (BP),"[3]; Monkey 1, time 0 min",75 mmHg
same,Blood Pressure (BP),"[3]; Monkey 1, time 5 min",75 mmHg
same,Blood Pressure (BP),"[3]; Monkey 1, time 15 min",75 mmHg
same,Blood Pressure (BP),"[3]; Monkey 1, time 30 min",71 mmHg
same,Blood Pressure (BP),"[3]; Monkey 1, time 60 min",70 mmHg
same,Blood Pressure (BP),"[3]; Monkey 1, time 90 min",74 mmHg
same,Blood Pressure (BP),"[3]; Monkey 1, time 120 min",68 mmHg
same,Blood Pressure (BP),"[3]; Monkey 1, time 180 min",72 mmHg
same,Blood Pressure (BP),"[3]; Monkey 1, time 360 min",72 mmHg
same,Blood Pressure (BP),"[3]; Monkey 2, time 0 min",105 mmHg
same,Blood Pressure (BP),"[3]; Monkey 2, time 5 min",99 mmHg
same,Blood Pressure (BP),"[3]; Monkey 2, time 15 min",92 mmHg
same,Blood Pressure (BP),"[3]; Monkey 2, time 30 min",82 mmHg
same,Blood Pressure (BP),"[3]; Monkey 2, time 60 min",85 mmHg
same,Blood Pressure (BP),"[3]; Monkey 2, time 90 min",85 mmHg
same,Blood Pressure (BP),"[3]; Monkey 2, time 120 min",80 mmHg
same,Blood Pressure (BP),"[3]; Monkey 2, time 180 min",92 mmHg
same,Blood Pressure (BP),"[3]; Monkey 2, time 360 min",93 mmHg
same,Blood Pressure (BP),"[3]; Monkey 3, time 0 min",77 mmHg
same,Blood Pressure (BP),"[3]; Monkey 3, time 5 min",82 mmHg
same,Blood Pressure (BP),"[3]; Monkey 3, time 15 min",69 mmHg
same,Blood Pressure (BP),"[3]; Monkey 3, time 30 min",69 mmHg
same,Blood Pressure (BP),"[3]; Monkey 3, time 60 min",65 mmHg
same,Blood Pressure (BP),"[3]; Monkey 3, time 90 min",70 mmHg
same,Blood Pressure (BP),"[3]; Monkey 3, time 120 min",82 mmHg
same,Blood Pressure (BP),"[3]; Monkey 3, time 180 min",72 mmHg
same,Blood Pressure (BP),"[3]; Monkey 3, time 360 min",84 mmHg
